According to US8278338B2 (priority 2004, dated 2012):
Like-named read-outs stand apart in the source and are kept apart here.

Assays:
[1] = target: T1, human μ-opiate receptor (Homo sapiens, UniProt P35372); assay: Affinity for the human μ-opiate receptor, [3H]-naloxone displacement (SPA) on CHO-K1 receptor membrane preparation; format: binding; details: for μ-Opioid receptor affinity (% inhibition at 1 μmol./l): 1 μmol./l test substance, inhibition of specific [3H]-naloxone binding
T1 construct: purchased Perkin Elmer, Zaventem, Belgium RB-HOM; host or cells: CHO-K1 cells
Method: The receptor affinity for the human μ-opiate receptor was determined in a homogeneous batch on microtitre plates. To that end, serial dilutions of the substances to be tested were incubated for 90 minutes at room temperature with a receptor membrane preparation (15-40 μg of protein/250 μl of incubation batch) of CHO-K1 cells, which express the human μ-opiate receptor (RB-HOM receptor membrane preparation from Perkin Elmer, Zaventem, Belgium), in the presence of 1 nmol./l of the radioactive ligand [^3H]-naloxone (NET719, Perkin Elmer, Zaventem, Belgium) and 1 mg of WGA-SPA beads (wheatgerm agglutinin SPA beads from Amersham/Pharmacia, Freiburg, Germany) in a total volume of 250 μl. The incubation buffer used was 50 mmol./l of Tris-HCl supplemented with 50 μM MgCl2 and 0.05% bovine serum albumin. In order to determine non-specific binding, 100 μmol./l of naloxone were additionally added. When the ninety-minute incubation time was complete, the microtitre plates were centrifuged off for 20 minutes at 1000 g and the radioactivity was measured in a β-counter (Microbeta-Trilux, PerkinElmer, Freiburg, Germany). The percentage displacement of the radioactive ligand from its binding to the human μ-opiate receptor at a concentration of the test substances of 1 μmol./l was determined and stated as the percentage inhibition of specific binding. […] Ki values for the test substances were obtained by conversion by means of the Cheng-Prusoff equation (Cheng and Prusoff 1973).

[2] = target: 5-HT reuptake (Rattus norvegicus, UniProt P31652); assay: biochemical; details: rat synaptosomes; for Ki: Cheng-Prusoff; for inhibition at 10 µM: read-out: Inhibition of 5-HT reuptake (% inhibition at 10 μmol./l), 10 μmol./l
Text: In order to be able to carry out these in vitro studies, synaptosomes were freshly isolated from areas of rat brain. […] For NA reuptake, these vesicular particles were isolated from the hypothalamus of male rat brains, and for 5HT reuptake, they were isolated from the medulla+pons region.
The IC50 values were obtained with the aid of the “Figure P” computer program (Version 6.0, Biosoft, Cambridge, England). […] The “Ligand” computer program (Version 4, Biosoft, England) was used to show KD values.

[3] = target: T2, NA reuptake (Rattus norvegicus, UniProt Q63380); assay: Inhibition of NA reuptake in rat brain synaptosomes (hypothalamus, P2 fraction); format: biochemical; details: for inhibition at 10 µM: 10 μmol./l
T2 construct: isolated from the hypothalamus of male rat brains; from tissue; host or cells: rat brain synaptosomes (P2 fraction), hypothalamus of male rats
Method: In order to be able to carry out these in vitro studies, synaptosomes were freshly isolated from areas of rat brain. A so-called “P2” fraction was used in each case, which was prepared exactly according to the procedure of Gray, E. G. and Whittaker, V. P. (1962, J. Anat. […], 79-88). For NA reuptake, these vesicular particles were isolated from the hypothalamus of male rat brains, and for 5HT reuptake, they were isolated from the medulla+pons region.
IC50 values were obtained thereby which can be converted into inhibitor constants (Ki) according to the “Cheng-Prusoff equation” (Cheng, Y. C. and Prusoff, W. H., 1973, Biochem. Pharmacol. 22, 3099-3108). The IC50 values were obtained with the aid of the “Figure P” computer program (Version 6.0, Biosoft, Cambridge, England). Km values were calculated according to Lineweaver, H. and Burk, D. (1934, J. Am. Chem. Soc. 56, 658-666). The “Ligand” computer program (Version 4, Biosoft, England) was used to show KD values.

[4] = tested on: mouse; assay: Formalin test in the mouse (phase 2, chronic pain component); format: in vivo; details: for ED50: iv, read-out: Inhibition of the nociceptive behaviour versus control, ED50 value
Method: (§1) The formalin test (Dubuisson, D. and Dennis, S. G., 1977, Pain, 4, 161-174) represents a model for acute and chronic pain. By means of a single formalin injection into the dorsal side of a rear paw, a biphase nociceptive reaction was induced in freely mobile test animals; the reaction was assessed by observing three behaviour patterns which are clearly distinguishable from one another. The reaction is two-phase: phase 1=immediate reaction (duration up to 10 minutes; shaking of the paw, licking), phase 2=late reaction (after a rest phase; likewise shaking of the paw, licking; duration up to 60 minutes). The first phase reflects a direct stimulation of the peripheral nocisensors with a high spinal nociceptive input or glutamate release (acute pain phase); the second phase reflects a spinal and peripheral hypersensitisation (chronic pain phase). In the studies presented here, the chronic pain component (phase 2) was evaluated.
Formalin was administered subcutaneously in a volume of 20 μl and a concentration of 1% into the dorsal side of the right rear paw of each animal. The specific behavioural changes, such as lifting and shaking of the paw (score 3), were observed and recorded over an observation period of from 21 to 24 minutes after the formalin injection. The size of the group was 10 animals (n=10).
(§2) On the basis of the PR calculations, the activity of the substance was determined in percent as the change relative to a control. The ED50 was determined by means of regression analysis.

[5] = tested on: rat; assay: Formalin test in the rat (phase 2, chronic pain component); format: in vivo
Method: as §1
Formalin was administered subcutaneously in a volume of 50 μl and a concentration of 5% into the dorsal side of the right rear paw of each animal. The specific behavioural changes, such as lifting and shaking of the paw, weight shifting of the animal and biting and licking reactions, were observed and recorded over an observation period of from 21 to 27 minutes after the formalin injection. The various behaviours were combined to give the so-called pain rate (PR) which, based on 3-minute intervals, represents the calculation of a mean nociceptive reaction. The PR was calculated on the basis of a numerical weighting (=in each case factor 1, 2, 3) of the observed behaviours (corresponding to behaviour score 1, 2, 3) and was calculated using the following formula:
The size of the group was 10 animals (n=10).
as §2

[6] = Cheng-Prusoff from IC50, [3H]-naloxone 1 nmol./l, read-out: μ-Opioid receptor affinity, Ki
[7] = 21.5 mg/kg i.v., phase 2, 21.5 mg/kg

T2 sequence (Q63380 1-617): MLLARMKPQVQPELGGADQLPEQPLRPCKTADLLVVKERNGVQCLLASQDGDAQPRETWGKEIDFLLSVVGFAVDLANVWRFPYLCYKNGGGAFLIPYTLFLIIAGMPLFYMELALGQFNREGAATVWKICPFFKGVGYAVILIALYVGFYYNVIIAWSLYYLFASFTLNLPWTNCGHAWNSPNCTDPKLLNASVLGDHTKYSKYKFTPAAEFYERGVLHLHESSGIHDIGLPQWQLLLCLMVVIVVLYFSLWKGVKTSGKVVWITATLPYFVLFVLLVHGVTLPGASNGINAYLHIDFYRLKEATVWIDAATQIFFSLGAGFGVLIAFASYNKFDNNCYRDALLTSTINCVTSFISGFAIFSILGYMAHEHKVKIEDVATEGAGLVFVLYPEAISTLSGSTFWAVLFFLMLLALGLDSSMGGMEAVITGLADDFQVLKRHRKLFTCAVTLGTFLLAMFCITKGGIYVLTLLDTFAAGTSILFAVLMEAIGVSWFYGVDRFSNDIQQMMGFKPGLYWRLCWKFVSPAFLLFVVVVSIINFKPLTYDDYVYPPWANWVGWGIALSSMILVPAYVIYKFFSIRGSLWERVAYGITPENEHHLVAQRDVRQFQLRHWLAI
T1 sequence (P35372 whole entry): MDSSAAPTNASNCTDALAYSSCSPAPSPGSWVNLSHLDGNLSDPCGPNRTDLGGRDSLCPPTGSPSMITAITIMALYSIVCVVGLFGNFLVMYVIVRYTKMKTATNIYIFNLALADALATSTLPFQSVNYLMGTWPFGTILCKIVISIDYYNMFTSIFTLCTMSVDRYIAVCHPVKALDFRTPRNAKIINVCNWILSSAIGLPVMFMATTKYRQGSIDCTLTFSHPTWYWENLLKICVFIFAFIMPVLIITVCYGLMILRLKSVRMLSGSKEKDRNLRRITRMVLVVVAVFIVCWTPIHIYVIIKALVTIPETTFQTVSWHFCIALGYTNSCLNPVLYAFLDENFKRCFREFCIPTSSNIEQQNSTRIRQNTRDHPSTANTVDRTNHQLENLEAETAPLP
Sequence of 5-HT reuptake (P31652 whole entry): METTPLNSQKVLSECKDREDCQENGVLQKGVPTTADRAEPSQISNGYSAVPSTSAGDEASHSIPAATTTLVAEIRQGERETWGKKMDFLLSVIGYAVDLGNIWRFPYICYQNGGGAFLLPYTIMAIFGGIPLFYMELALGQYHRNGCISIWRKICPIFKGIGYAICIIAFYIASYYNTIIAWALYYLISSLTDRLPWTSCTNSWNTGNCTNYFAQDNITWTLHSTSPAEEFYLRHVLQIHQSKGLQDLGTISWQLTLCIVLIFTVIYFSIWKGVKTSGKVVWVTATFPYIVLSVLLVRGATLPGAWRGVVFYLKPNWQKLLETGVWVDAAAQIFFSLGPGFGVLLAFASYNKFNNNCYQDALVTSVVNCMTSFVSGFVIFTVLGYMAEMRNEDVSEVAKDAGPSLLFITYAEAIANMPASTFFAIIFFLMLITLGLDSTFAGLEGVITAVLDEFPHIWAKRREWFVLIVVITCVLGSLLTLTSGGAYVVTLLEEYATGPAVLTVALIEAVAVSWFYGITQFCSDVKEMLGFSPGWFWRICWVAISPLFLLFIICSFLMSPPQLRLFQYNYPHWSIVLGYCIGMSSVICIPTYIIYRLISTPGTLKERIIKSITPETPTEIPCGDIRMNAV

Question: With `CN(C)CC1=C(c2cccnc2)c2ccccc2C1` [Example 3, dimethyl-(3-pyridin-3-yl-1H-inden-2-ylmethyl)-amine] as the compound, how does the Ki [1] read?
Answer: Its Ki is 240 nM.

Question: And the Ki [2]?
Answer: Its Ki is 13 nM.

Question: And the inhibition at 10 µM [3]?
Answer: Its inhibition at 10 µM is 30%.

Question: And the ED50 ([4]; phase 2, regression analysis)?
Answer: Its ED50 is 3.32 mg/kg.

Question: How did the Ki [1] turn out when `COc1ccc2c(c1)CC(CN(C)C)=C2c1cccnc1` [Example 6, (6-methoxy-3-pyridin-3-yl-1H-inden-2-ylmethyl)-dimethyl-amine] was run?
Answer: Its Ki is 150 nM.

Question: And the Ki [2]?
Answer: Its Ki is 28 nM.

Question: And the inhibition at 10 µM [3]?
Answer: Its inhibition at 10 µM is 31%.

Question: And the ED50 ([4]; phase 2, regression analysis)?
Answer: The ED50 was 1.64 mg/kg.

Question: `CN(C)CC1=C(c2cccnc2)c2ccccc2CC1` [Example 9, dimethyl-(1-pyridin-3-yl-3,4-dihydro-naphthalen-2-ylmethyl)-amine] was tested. Which Ki [1, 6] did it give?
Answer: Its Ki is 560 nM.

Question: And the inhibition at 10 µM [2]?
Answer: The inhibition at 10 µM was 56%.

Question: And the inhibition at 10 µM [3]?
Answer: Its inhibition at 10 µM is 26%.

Question: And the “Inhibition of the nociceptive behaviour versus control (% inhibition)” value (shortened to “Inhibition … (% inhibition)”) ([5]; 10 mg/kg i.v., phase 2)?
Answer: Its value is −97.0%.

Question: Which Ki [1, 6] does the source give for `CN(C)CC1=C(c2cccnc2)c2ccccc2CCC1` [Example 12, dimethyl-(5-pyridin-3-yl-8,9-dihydro-7H-benzocyclohepten-6-ylmethyl)-amine] here?
Answer: Its Ki is 380 nM.

Question: What about the Ki [2] of the same compound?
Answer: The Ki was 120 nM.

Question: And the inhibition at 10 µM [3]?
Answer: Its inhibition at 10 µM is 20%.

Question: What about the “Inhibition … (% inhibition)” value ([4]; 14.7 mg/kg i.v., phase 2) of the same compound?
Answer: The value was −45.8%.

Question: For `CN(C)CC1CCSc2ccccc2C1(O)c1cccnc1` (stereo not drawn) [Example 13, 4-dimethylaminomethyl-5-pyridin-3-yl-2,3,4,5-tetrahydro-benzo[b]thiepin-5-ol], which “μ-Opioid receptor affinity (% inhibition at 1 μmol./l)” value [1] is on record?
Answer: Its value is −23%.

Question: And the inhibition at 10 µM [2]?
Answer: The inhibition at 10 µM was 41%.

Question: What about the inhibition at 10 µM [3] of the same compound?
Answer: The inhibition at 10 µM was 45%.

Question: And the “Inhibition … (% inhibition)” value [5, 7]?
Answer: The value was −53.6%.

Question: How did the “μ-Opioid receptor affinity (% inhibition at 1 μmol./l)” value [1] turn out when `CN(C)CC1CCSc2ccccc2C1(O)c1cccnc1` (stereo not drawn) [Example 14, 4-dimethylaminomethyl-5-pyridin-3-yl-2,3,4,5-tetrahydro-benzo[b]thiepin-5-ol] was run?
Answer: Its value is −14%.

Question: What about the “Inhibition of 5-HT reuptake (% inhibition at 10 μmol./l)” value ([2]; 10 μmol./l) of the same compound?
Answer: The value was 44%.

Question: And the “Inhibition of NA reuptake (% inhibition at 10 μmol./l)” value [3]?
Answer: The value was 54%.

Question: What about the “Inhibition … (% inhibition)” value [5, 7] of the same compound?
Answer: Its value is −53.2%.

Question: How did the Ki [1, 6] turn out when `CN(C)CC1=C(c2cccnc2)c2ccccc2SCC1` [Example 15, dimethyl-(5-pyridin-3-yl-2,3-dihydro-benzo[b]thiepin-4-ylmethyl)-amine] was run?
Answer: The Ki was 320 nM.

Question: And the inhibition at 10 µM [2]?
Answer: Its inhibition at 10 µM is 60%.

Question: What about the inhibition at 10 µM [3] of the same compound?
Answer: Its inhibition at 10 µM is 36%.

Question: What about the “Inhibition … (% inhibition)” value ([5]; 10 mg/kg i.v., phase 2) of the same compound?
Answer: The value was −70.7%.

Question: Which results are given for `COc1ccc(C(CN(C)C)C2(O)CCCCC2)cc1` (stereo not drawn) [Venlafaxin, venlafaxin, reference compound]?
Answer: μ-Opioid receptor affinity (% inhibition at 1 μmol./l) [1]: −1%; Inhibition of the nociceptive behaviour versus control, ED50 value ([4]; i.v., phase 2, regression analysis): 2.60 mg/kg
